# In ChEMBL document CHEMBL4038270, “Synthesis of heterocyclic ring-fused tricyclic diterpene analogs as novel inhibitors of RANKL-induced osteoclastogenesis and bone resorption” (Eur J Med Chem, 2017):
# Activity calls are given as the source filed them. No cut-off for these calls is given here.
# Legend:
# [1] = Cytotoxicity against C57BL/6 mouse bone marrow monocytes assessed as reduction in cell viability after 72 hrs in presence of M-CSF by MTS assay; format: cell-based; conditions: C57BL/6, Bone marrow monocyte
# Bone marrow monocyte [2] = assay: Inhibition of RANKL-induced C-src mRNA expression in C57BL/6 mouse bone marrow monocytes at 10 uM in presence of M-CSF by SYBR green-dye based qRT-PCR analysis; format: functional, cell-based; conditions: TDE = time-dependent effect
# [3] = Inhibition of RANKL-induced C57BL/6 mouse bone marrow monocytes differentiation into osteoclasts at 0.5 uM after 6 days in presence of M-CSF by tartrate-resistant acid phosphatase staining based assay relative to control; format: functional; conditions: C57BL/6, Bone marrow monocyte, 144 h
# [4] = Effect on osteblast differentiation in mouse Mesenchymal stem cells at 2 to 10 uM measured after 7 days in presence of dexamethasone/b-glycerophosphate/Vitamin C by ALP staining assay; format: cell-based; conditions: mesenchymal stem cell, 168 h
# Mus musculus [5] = assay: Anti-osteoporotic activity in ovariectomized-induced osteoporosis in C57BL/6 mouse assessed as increase in bone strength at 20 mg/kg, ip administered for 60 days by three point bending test; format: functional, organism-based
# Bone marrow monocyte [6] = assay: Inhibition of RANKL-induced TRAP mRNA expression in C57BL/6 mouse bone marrow monocytes measured after 5 days in presence of M-CSF by SYBR green-dye based qRT-PCR analysis; format: functional, cell-based
# [7] = Potency index, ratio of maslinic acid IC50 to compound IC50 for RANKL-induced C57BL/6 mouse bone marrow monocytes differentiation into osteoclasts; format: functional, Bone marrow monocyte
# Bone marrow monocyte [8] = assay: Inhibition of RANKL-induced CTR mRNA expression in C57BL/6 mouse bone marrow monocytes at 10 uM in presence of M-CSF by SYBR green-dye based qRT-PCR analysis; format: functional, cell-based; conditions: TDE = time-dependent effect
# Mus musculus [9] = assay: Toxicity in ovariectomized C57BL/6 mouse assessed as effect on body weight at 5 to 20 mg/kg, ip administered for 60 days measured every 7 days during compound dosing; format: organism-based; conditions: in vivo
# [10] = biological target: MAP kinase p38 (Mus musculus) (UniProt P47811+O08911+Q9WUI1+Q9Z1B7); assay: Inhibition of RANKL-induced p38 phosphorylation in mouse […] cells at 10 uM pretreated for 4 hrs followed by RANKL stimulation measured for 60 mins by Western blot method; format: cell-based
# Bone marrow monocyte [11] = assay: Inhibition of RANKL-induced cathepsin K mRNA expression in C57BL/6 mouse bone marrow monocytes measured after 5 days in presence of M-CSF by SYBR green-dye based qRT-PCR analysis; format: functional, cell-based
# Bone marrow monocyte [12] = assay: Inhibition of RANKL-induced cathepsin K mRNA expression in C57BL/6 mouse bone marrow monocytes at 10 uM in presence of M-CSF by SYBR green-dye based qRT-PCR analysis; format: functional, cell-based; conditions: TDE = time-dependent effect
# Mus musculus [13] = species on record: Mus musculus; assay: Inhibition of RANKL-induced ERK phosphorylation in mouse […] cells at 10 uM pretreated for 4 hrs followed by RANKL stimulation measured for 60 mins by Western blot method; format: cell-based
# Mus musculus [14] = assay: Protection against ovariectomized-induced osteoporosis in C57BL/6 mouse assessed as increase in ratio of bone volume to tissue volume of femur at 20 mg/kg, ip administered for 60 days by micro computed tomography; format: functional, organism-based
# [15] = Cytotoxicity against C57BL/6 mouse bone marrow monocytes assessed as reduction in cell viability at 20 uM after 72 hrs in presence of M-CSF by MTS assay; format: cell-based; conditions: bone marrow monocyte
# [16] = Selectivity index, ratio of IC50 for C57BL/6 mouse bone marrow monocytes to IC50 for RANKL-induced C57BL/6 mouse bone marrow monocytes differentiation into osteoclasts; parameters: species or system Bone marrow monocyte
# [17] = (§1) Inhibition of RANKL-induced C57BL/6 mouse bone marrow monocytes differentiation into osteoclasts after 6 days in presence of M-CSF by tartrate-resistant acid phosphatase staining based assay; format: functional, cell-based; conditions: C57BL/6, Bone marrow monocyte, 144 h
# Bone marrow monocyte [18] = assay: as §1; format: functional, cell-based
# Mus musculus [19] = assay: Inhibition of ovariectomized-induced osteoclast activity in C57BL/6 mouse femur at 5 mg/kg, ip administered for 60 days by tartrate-resistant acid phosphatase staining; format: functional, organism-based
# Bone marrow monocyte [20] = assay: Inhibition of RANKL-induced NFATc1 mRNA expression in C57BL/6 mouse bone marrow monocytes at 10 uM in presence of M-CSF by SYBR green-dye based qRT-PCR analysis; format: functional, cell-based; conditions: TDE = time-dependent effect
# Mus musculus [21] = assay: Protection against ovariectomized-induced osteoporosis in C57BL/6 mouse assessed as increase in trabecular number of femur at 20 mg/kg, ip administered for 60 days by micro computed tomography; format: functional, organism-based
# Mus musculus [22] = species on record: Mus musculus; assay: Inhibition of RANKL-induced IKK-mediated NF-kappa-B p65 phosphorylation in mouse […] cells at 10 uM pretreated for 4 hrs followed by RANKL stimulation measured for 60 mins by Western blot method; format: cell-based
# Mus musculus [23] = assay: Protection against ovariectomized-induced osteoporosis in C57BL/6 mouse assessed as reduction in trabecular separation of femur at 20 mg/kg, ip administered for 60 days by micro computed tomography; format: functional, organism-based
# Mus musculus [24] = assay: Protection against ovariectomized-induced osteoporosis in C57BL/6 mouse assessed as increase in trabecular thickness of femur at 20 mg/kg, ip administered for 60 days by micro computed tomography; format: functional, organism-based
# Mus musculus [25] = assay: Inhibition of ovariectomized-induced osteoclast activity in C57BL/6 mouse femur at 20 mg/kg, ip administered for 60 days by tartrate-resistant acid phosphatase staining method; format: functional, organism-based
# Mus musculus [26] = species on record: Mus musculus; assay: Inhibition of RANKL-induced IKK mediated IkappaBalpha degradation in mouse […] cells at 10 uM pretreated for 4 hrs followed by RANKL stimulation measured for 60 mins by Western blot method; format: cell-based
# Bone marrow monocyte [27] = assay: Inhibition of RANKL-induced TRAP mRNA expression in C57BL/6 mouse bone marrow monocytes at 10 uM in presence of M-CSF by SYBR green-dye based qRT-PCR analysis; format: functional, cell-based; conditions: TDE = time-dependent effect
# Mus musculus [28] = species on record: Mus musculus; assay: Inhibition of RANKL-induced JNK phosphorylation in mouse […] cells at 10 uM pretreated for 4 hrs followed by RANKL stimulation measured for 60 mins by Western blot method; format: cell-based
# Bone marrow monocyte [29] = assay: Inhibition of RANKL-induced C-src mRNA expression in C57BL/6 mouse bone marrow monocytes measured after 5 days in presence of M-CSF by SYBR green-dye based qRT-PCR analysis; format: functional, cell-based
# [30] = Inhibition of RANKL-induced C57BL/6 mouse bone marrow monocytes differentiation into osteoclasts at 2 uM after 6 days in presence of M-CSF by tartrate-resistant acid phosphatase staining based assay relative to control; format: functional; conditions: C57BL/6, Bone marrow monocyte, 144 h
# Mus musculus [31] = assay: Protection against ovariectomized-induced osteoporosis in C57BL/6 mouse assessed as reduction in femur structure model index at 20 mg/kg, ip administered for 60 days by micro computed tomography; format: functional, organism-based
# Mus musculus [32] = assay: Protection against ovariectomized-induced osteoporosis in C57BL/6 mouse assessed as increase in bone mineral density of femur at 20 mg/kg, ip administered for 60 days by micro computed tomography; format: functional, organism-based
# [33] = Inhibition of RANKL-induced C57BL/6 mouse bone marrow monocytes differentiation into osteoclasts at 0.1 uM after 6 days in presence of M-CSF by tartrate-resistant acid phosphatase staining based assay relative to control; format: functional; conditions: C57BL/6, Bone marrow monocyte, 144 h
# [34] = Cytotoxicity against C57BL/6 mouse bone marrow monocytes assessed as reduction in cell viability at 2 uM after 72 hrs in presence of M-CSF by MTS assay; format: cell-based; conditions: bone marrow monocyte
# Bone marrow monocyte [35] = assay: Inhibition of RANKL-induced CTR mRNA expression in C57BL/6 mouse bone marrow monocytes measured after 5 days in presence of M-CSF by SYBR green-dye based qRT-PCR analysis; format: functional, cell-based
# Bone marrow monocyte [36] = assay: Inhibition of RANKL-induced NFATc1 mRNA expression in C57BL/6 mouse bone marrow monocytes measured after 5 days in presence of M-CSF by SYBR green-dye based qRT-PCR analysis; format: functional, cell-based
structure (smiles),measurement,setting,value
CNC(=O)c1cc2c(cc1OC)[C@@]1(C)Cc3nc(C)oc3C(C)(C)[C@@H]1CC2,IC50,[1],88.3 µM
same,inhibition,Bone marrow monocyte [2],Tde
same,inhibition at 0.5 µM,[3],92.7%
same,Activity,[4],Non-Toxic
same,Activity,Mus musculus [5],Active
same,inhibition,Bone marrow monocyte [6],Dose-dependent effect
same,Ratio IC50,[7],16
same,inhibition,Bone marrow monocyte [8],Tde
same,Activity,Mus musculus [9],Non-Toxic
same,inhibition,[10],Active
same,inhibition,Bone marrow monocyte [11],Dose-dependent effect
same,inhibition,Bone marrow monocyte [12],Tde
same,inhibition,Mus musculus [13],Active
same,Activity,Mus musculus [14],Active
same,Activity,[15],Toxic
same,Ratio IC50,[16],2208
same,IC50,[17],0.04 µM
same,inhibition,Bone marrow monocyte [18],Dose-dependent effect
same,inhibition,Mus musculus [19],inactive
same,inhibition,Bone marrow monocyte [20],Tde
same,Activity,Mus musculus [21],Active
same,inhibition,Mus musculus [22],Active
same,Activity,Mus musculus [23],Active
same,Activity,Mus musculus [24],Active
same,inhibition,Mus musculus [25],Active
same,inhibition,Mus musculus [26],Active
same,inhibition,Bone marrow monocyte [27],Tde
same,inhibition,Mus musculus [28],Active
same,inhibition,Bone marrow monocyte [29],Dose-dependent effect
same,inhibition at 2 µM,[30],100%
same,Activity,Mus musculus [31],Active
same,Activity,Mus musculus [32],Active
same,inhibition at 0.1 µM,[33],72.3%
same,Activity,[34],Non-Toxic
same,inhibition,Bone marrow monocyte [35],Dose-dependent effect
same,inhibition,Bone marrow monocyte [36],Dose-dependent effect
